How the values were obtained:
[1] = Dose–response curve of purified […]s with isoleucine; type: biochemical; parameters: key to Dose-response, AVE of Repeat 1-3 (Fig. 3 i): normalized ΔF/F0 (fluorescence change over baseline); settings: for fluorescence response of GECFINDER, AVE of 3 repeats: Supplementary Fig. 3 g
Procedure: (§1) Fig. 3 Dose–response curves and fluorescence spectrums of […]s. a, c, e, g, i, k Dose–response curve of purified […]s with increasing concentrations of ligand in 100 mM Tris-HCl buffer (pH=7.5). The normalized ΔF/F0 value increased after ligand binding. All data shown are mean ± S.D. (n = 3 biologically independent samples). b, d, f, h, j, l The fluorescence spectra of […]s changed as the ligand concentration increased. All data shown are mean ± S.D. (n = 3 biologically independent samples). Source data are provided as a Source data file.
The study conducted dose–response curve, substrate specificity, and fluorescent spectrum analyses in 100-mM Tris buffer (pH = 7.5), while pH stability experiments were performed in 100-mM Tris buffer at three different pH values (6.5, 7.5, and 8.5) at room temperature. […] protein at a concentration of 0.75 μM, various small molecule concentrations, 1 mM ATP, and 2.5 mM MgCl2 were used in the experiments. Fluorescent signals were detected using a Microplate Reader (Synergy H4, Bio Tek) at an excitation/emission wavelength of 460 nm/510 nm or 480 nm/510 nm. The dose-response curve was determined immediately after the addition of the analyte. The total duration of the measurement was 15 min, with readings taken at one-minute intervals. The dose-response curve was plotted using the fluorescence values obtained after achieving stability in the fluorescence signal. The dose-response curves were fitted using the logistic model LOGISTIC5 available in Origin 2021, which could provide a more adequate fit to asymmetric dose-response data[62],[63]. Excitation spectra were scanned from 300 to 540 nm with a step size of 5 nm, and the emission wavelength was set to 560 nm. Emission spectra were scanned from 470 to 700 nm with a step size of 5 nm, and the excitation wavelength was set to 450 nm. The thermal stability of […] was analyzed using the UNcle multifunctional protein stability analysis system. Measurements were performed in 20 mM MOPS buffer with 2 mM DTT at a sample concentration of 1 mg/mL. Absolute fluorescence quantum yields were measured using an absolute photoluminescence quantum yield spectrometer (FS5, Edinburgh). […]
Ile (μM) Wave le ngth( nm ) Ile (μM) Wave le ngth( nm )
Supplementary Fig. 2 Dose–response curves and fl uorescen ce spectr ums of GEC FINDERs. a and c, Dose– re spons e curves of puri fi ed GECF INDE R-P he1 and 2 with increas ing concen tra tions of phenylalanine (1 nM to 100 μM). The norm alized ΔF/F 0 value increas ed aft er phenylalanine binding (4 60 nm excita tion) . b and d, The fl uore scen ce spect ra of GECF IN DER-P he1 and 2 changed as the phe nylalanine concen tra tion incre ased fro m 1 nM to 100 μM. e and g, Dose–re spon se curv es of puri fied GECF IN DER-Il e1 and 2 with increas ing concen tra tio ns of isoleucine (50 nM to 10 mM). The norm alized ΔF/F 0 value increas ed aft er isoleucine binding (4 80 nm excita tion) . f and h, The fl uore scen ce spect ra of GECF INDE R-Il e1 and 2 change d as the isoleucine concen tration increas ed fro m 0.5 μM to 10 mM. i, Dose–re spon se curv e of puri fi ed GECF INDE R-H is1 with increas ing concen tra tio ns of histid ine (5 nM to 1 mM). The Norm alized ΔF/F 0 increas ed aft er histidine binding (480 nm excita tion). j, The fl uore scen ce spect ra of GECFIN DER-H is1 changed as the histid ine concen tra tion increas ed fro m 5 nM to 1 mM. k, Diffe re nce in fl uore scen ce intensity of GECF INDE R-b enzoic aci d in the pre sence of 10 µM benzoic aci d compare d to the cont ro l (0 µM benzoic aci d). […] (n=3 biological ly independent samples). *p ≤ 0.05, ***p ≤ 0.001, ****p ≤ 0.0001, and n.s. indicat ed no signifi can t diffe re nce (S tude nt’s two-t aile d t-t est). Source data are provi ded as a Source Data file . […]

GECFINDER-Phe1 = target: T1, GECFINDER-Phe1 (Aneurinibacillus migulanus, UniProt P0C061); test: Fluorescence dose-response of purified cpEGFP sensors (0.75 uM) in 100 mM Tris-HCl pH 7.5, room temperature, 1 mM ATP, 2.5 mM MgCl2; excitation 400, 460 or 480 nm by sensor, emission 510 nm; logistic five-parameter fit.; type: biochemical; settings: n = 3
T1 construct: gene grsA; GrsA-PheA-PCP; cpEGFP inserted in hinge B, linkers CC-DR
Procedure: as §1
The study conducted dose–response curve, substrate specificity, and fluorescent spectrum analyses in 100-mM Tris buffer (pH = 7.5), while pH stability experiments were performed in 100-mM Tris buffer at three different pH values (6.5, 7.5, and 8.5) at room temperature. […] protein at a concentration of 0.75 μM, various small molecule concentrations, 1 mM ATP, and 2.5 mM MgCl2 were used in the experiments. Fluorescent signals were detected using a Microplate Reader (Synergy H4, Bio Tek) at an excitation/emission wavelength of 460 nm/510 nm or 480 nm/510 nm. The dose-response curve was determined immediately after the addition of the analyte. The total duration of the measurement was 15 min, with readings taken at one-minute intervals. The dose-response curve was plotted using the fluorescence values obtained after achieving stability in the fluorescence signal. The dose-response curves were fitted using the logistic model LOGISTIC5 available in Origin 2021, which could provide a more adequate fit to asymmetric dose-response data[62],[63]. Excitation spectra were scanned from 300 to 540 nm with a step size of 5 nm, and the emission wavelength was set to 560 nm. Emission spectra were scanned from 470 to 700 nm with a step size of 5 nm, and the excitation wavelength was set to 450 nm. The thermal stability of […] was analyzed using the UNcle multifunctional protein stability analysis system. Measurements were performed in 20 mM MOPS buffer with 2 mM DTT at a sample concentration of 1 mg/mL. Absolute fluorescence quantum yields were measured using an absolute photoluminescence quantum yield spectrometer (FS5, Edinburgh).

T1 sequence (P0C061 1-617): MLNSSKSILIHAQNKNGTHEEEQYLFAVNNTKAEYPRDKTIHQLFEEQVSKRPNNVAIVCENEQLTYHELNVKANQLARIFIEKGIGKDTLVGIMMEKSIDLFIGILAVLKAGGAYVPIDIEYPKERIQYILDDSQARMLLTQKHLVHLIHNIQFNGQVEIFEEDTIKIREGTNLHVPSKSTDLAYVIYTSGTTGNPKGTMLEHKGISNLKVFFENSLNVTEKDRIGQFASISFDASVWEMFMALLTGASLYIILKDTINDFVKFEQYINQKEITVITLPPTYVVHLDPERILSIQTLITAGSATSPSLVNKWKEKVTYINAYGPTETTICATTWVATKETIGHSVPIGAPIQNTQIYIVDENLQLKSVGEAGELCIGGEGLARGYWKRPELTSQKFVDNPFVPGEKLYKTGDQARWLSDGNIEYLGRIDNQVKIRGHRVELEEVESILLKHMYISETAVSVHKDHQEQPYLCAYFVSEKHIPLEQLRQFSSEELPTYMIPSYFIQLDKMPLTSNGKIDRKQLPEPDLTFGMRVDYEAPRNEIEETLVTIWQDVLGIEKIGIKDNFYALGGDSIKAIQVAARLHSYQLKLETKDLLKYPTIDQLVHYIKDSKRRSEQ

Structure (SMILES): CC[C@H](C)[C@H](N)C(=O)O [Ile]
- Dose-response, AVE of Repeat 1-3 (Fig. 3 i) ([1]; Ile 0.05 μM): 0
- Dose-response, AVE of Repeat 1-3 (Fig. 3 i) ([1]; Ile 0.1 μM): 0.02113
- Dose-response, AVE of Repeat 1-3 (Fig. 3 i) ([1]; Ile 0.5 μM): 0.03402
- Dose-response, AVE of Repeat 1-3 (Fig. 3 i) ([1]; Ile 5 μM): 0.05594
- Dose-response, AVE of Repeat 1-3 (Fig. 3 i) ([1]; Ile 50 μM): 0.1628
- Dose-response, AVE of Repeat 1-3 (Fig. 3 i) ([1]; Ile 100 μM): 0.2049
- Dose-response, AVE of Repeat 1-3 (Fig. 3 i) ([1]; Ile 250 μM): 0.2905
- Dose-response, AVE of Repeat 1-3 (Fig. 3 i) ([1]; Ile 500 μM): 0.3097
- Dose-response, AVE of Repeat 1-3 (Fig. 3 i) ([1]; Ile 1000 μM): 0.3698
- Dose-response, AVE of Repeat 1-3 (Fig. 3 i) ([1]; Ile 5000 μM): 0.4681
- Dose-response, AVE of Repeat 1-3 (Fig. 3 i) ([1]; Ile 7500 μM): 0.4489
- Dose-response, AVE of Repeat 1-3 (Fig. 3 i) ([1]; Ile 10000 μM): 0.4411
- fluorescence response of GECFINDER, AVE of 3 repeats ([1]; Ile 0.05 μM): -6.245e-17
- fluorescence response of GECFINDER, AVE of 3 repeats ([1]; Ile 0.1 μM): 0.01149
- fluorescence response of GECFINDER, AVE of 3 repeats ([1]; Ile 0.5 μM): 0.02425
- fluorescence response of GECFINDER, AVE of 3 repeats ([1]; Ile 5 μM): 0.01608
- fluorescence response of GECFINDER, AVE of 3 repeats ([1]; Ile 50 μM): 0.05759
- fluorescence response of GECFINDER, AVE of 3 repeats ([1]; Ile 100 μM): 0.08825
- fluorescence response of GECFINDER, AVE of 3 repeats ([1]; Ile 250 μM): 0.1283
- fluorescence response of GECFINDER, AVE of 3 repeats ([1]; Ile 500 μM): 0.1586
- fluorescence response of GECFINDER, AVE of 3 repeats ([1]; Ile 1000 μM): 0.1861
- fluorescence response of GECFINDER, AVE of 3 repeats ([1]; Ile 5000 μM): 0.2413
- fluorescence response of GECFINDER, AVE of 3 repeats ([1]; Ile 7500 μM): 0.2222
- fluorescence response of GECFINDER, AVE of 3 repeats ([1]; Ile 10000 μM): 0.2208

Structure (SMILES): N[C@@H](Cc1ccccc1)C(=O)O [Phe, phenylalanine]
- EC50 (GECFINDER-Phe1): 1.55 ± 0.23 µM
